Patent US9808004B2, “Synergistic combination to improve grape color and to alter sensory characteristics of wine” (Valent BioSciences Corporation, priority 2007, dated 2017)

Key:
[1] = Quality of wine from treated Cabernet Sauvignon grapes (colour density, phenolics, tasting panel score); set-up: species or system grape; conditions: for Wine assessment: tasting panel score from 5 characteristics (color intensity, aroma intensity, body/fullness, flavor intensity, finish), 200 ppm of each compound at veraison
Method: (§1) A replicated field experiment was conducted on the red wine grape cultivar ‘Cabernet Sauvignon’ in the Riverland growing region of South Australia. The vineyard was 19 years old with a vine spacing of 3 m by 3 m. The plot size was nine vines/replicate with three replicates/treatment. […] Treatments were mixed with the adjuvant Agral 600 (10 mL/100 L v/v; CropCare Australasia, Pty Ltd.).

[2] = system: red table grape cultivar 'Crimson Seedless'; assay: Replicated field experiment on Crimson Seedless table grapes: colour development (harvestable clusters), firmness, berry weight, Brix; Synergy Index; conditions: for Firmness: at harvest; for Cumulative harvestable clusters: foliar, veraison plus seven days, Crimson Seedless; for Effect on cumulative harvestable cluster number (in words): applied alone, dose-dependent, 88 to 877 mg/vine; for Dose acting alone which produced the end point (QA, QB): end point 24.7 cumulative harvestable clusters
From the text: The vineyard was 12 years old and on overhead trellis with a vine spacing of 12 ft by 7 ft (518 vines/acre). Plot size was three vines/replicate, with six replicates/treatments. The area evaluated within each plot was one center vine and two half vines on each side for a total of two vines. Applications were made seven days after veraison (beginning of berry softening). On the day of application, red coloration was developing on about 10% of the berries. […] All treatments were mixed with the adjuvant Latron B-1956 (0.05% v/v; Dow AgroSciences LLC, Indianapolis, Ind.). Treatments were applied with a backpack mist blower at 200 gallons/acre (757 l/acre).
The total grape clusters were counted on the day of application. After treatment, the plots were evaluated weekly for color development by counting the number of harvestable colored grape clusters in each plot. All harvestable colored clusters were removed 79 days later to eliminate over-mature clusters. The number of harvestable colored grape clusters was expressed as cumulative harvestable clusters (number of harvestable clusters per two vines). Average berry firmness, weight and Brix (soluble solids) were evaluated 5 days later. Evaluation samples consisted of 10 second shoulders (second lateral branch of the main rachis) from 10 different clusters selected randomly from each plot. All berries in the evaluation samples were removed, counted, and weighed. A sub-sample of 20 to 30 berries was crushed for brix (soluble solids) analysis. Brix was measured with a handheld temperature compensating Leica Refractometer. An additional 10 berries were selected randomly for berry firmness. Berry firmness was determined by a hand held Wilson Penetrometer (0 to 1000 g) mounted on a stand with a 6 mm tip.
Synergy was determined by an industrially accepted method (Kull et al., 1961, Applied Microbiology 9:538-541 and Robertson and Ramesh, 1998, U.S. Pat. No. 5,716,629). Synergy Index=Qa/QA+Qb/QB where:
Qa=dose of compound A in mg/vine, in the mixture, which produced an end point
QA=dose of compound A in mg/vine, acting alone, which produced an end point.
Qb=[…] of compound B in mg/vine, in the mixture, which produced an end point.
QB=dose of compound B in mg/vine, acting alone, which produced an end point.
Synergy, additivity, or antagonism are shown when the Synergy Index is less than one, equal to one, or greater than one, respectively.

[3] = system: red wine grape cultivar 'Cabernet Sauvignon'; assay: Replicated field experiment on Cabernet Sauvignon wine grapes: grape quality at harvest; type: in vivo; conditions: 200 ppm of each compound applied, foliar at veraison
Method: as §1

[4] = 88 mg/vine of each compound applied
[5] = 292 mg/vine of each compound applied
[6] = 200 ppm of each compound applied, foliar at veraison, Cabernet Sauvignon

Molecule	Wine assessment [1]	Wine assessment ([1]; listed as ethephon)	Firmness [2, 4]	Cumulative harvestable clusters [2, 4]	Cumulative harvestable clusters [2, 5]	Firmness ([2]; 877 mg/vine)	Cumulative harvestable clusters ([2]; 877 mg/vine)	Effect on cumulative harvestable cluster number (in words) [2]	Dose acting alone which produced the end point (QA, QB) [2]	Wine color density [1, 6]	Wine phenolics [1, 6]	Wine color density ([1]; 200 ppm of each compound applied, foliar at veraison, Cabernet Sauvignon, listed as ABA)	Wine assessment ([1]; listed as ABA)	Anthocyanins, grapes at harvest [3]	Anthocyanins, grapes at harvest ([3]; listed as ABA)
O=P(O)(O)CCCl [Ethephon]	2.3	did not affect	765 g	9.2 no. per two vines	15.7 no. per two vines	709 g	40.2 no. per two vines	increased	484 mg/vine	–	–	–	–	–	–
(S)-5-(1-hydroxy-2,6,6,-trimethyl-4-oxo-2-cyclohexen-1-yl)-3-methyl-(2Z,4E)-pentadienoic acid [S-ABA]	higher wine assessment score	–	–	11.8 no. per two vines	38.0 no. per two vines	–	43.8 no. per two vines	increased	337 mg/vine	lower than in the untreated	20.2	5.6	2.7	lower than in the untreated	0.78 mg/g
